According to patent US7655654B2, “Farnesyl transferase inhibiting tricyclic quinazoline derivatives substituted with carbon-linked imidazoles or triazoles” (Janssen Pharmaceutica NV, priority 2002, dated 2010):

Columns and labels:
[1] = biological target: farnesyl protein transferase (Homo sapiens, UniProt P49354+P49356); experiment: In vitro assay for inhibition of farnesyl protein transferase; assay type: biochemical; conditions: for IC50 / Enzyme activity pIC50: negative log value of the IC50-value; for IC50: read-out: Enzyme activity pIC50 (converted); for % of inhibition at 10^−7 M / inhibition at 0.1 µM: at 10^−7 M
Method: Example C.1: “In Vitro Assay for Inhibition of Farnesyl Protein Transferase”:
An in vitro assay for inhibition of farnesyl transferase was performed essentially as described in WO 98/40383, pages 33-34. Herein the effects of test compounds are expressed as pIC50 (the negative log value of the IC50-value) and as % of inhibition at 10^−7 M (see Table F-2)

| SMILES | % of inhibition at 10^−7 M [1] [%] | IC50 [1] [nM] | melting point [°C] | inhibition at 0.1 µM [1] [%] | Enzyme activity pIC50 [1] |
| --- | --- | --- | --- | --- | --- |
| COc1ccc(C(O)(c2ccc3c(c2)C(c2cccc(Cl)c2)n2nnnc2N3Cc2ccc(C#N)cc2)c2cncn2C)cc1 (mixture of isomers) [Compound 14] | – | 18.6 | 164 | 74 | – |
| COc1ccc(C(O)(c2ccc3c(c2)C(c2cccc(Cl)c2)n2nnnc2N3)c2cncn2C)cc1 (stereo not drawn) [Compound 3, 9-(3-chlorophenyl)-4,9-dihydro-α-(4-methoxyphenyl)-α-(1-methyl-1H-imidazol-5-yl)-tetrazolo[5,1-]quinazoline-7-methanol] | – | 23.3 | – | 80 | – |
| Cn1cnnc1C(O)(c1ccc(I)cc1)c1ccc2c(c1)C(c1cccc(Cl)c1)n1nnnc1N2 (stereo not drawn) [Compound 17] | 42 | – | 195 | – | <7 |
| CC(C)OC(=O)c1ccc(C(O)(c2ccc3c(c2)C(c2cccc(Cl)c2)n2nnnc2N3C)c2cncn2C)cc1 (mixture of isomers) [Compound 25] | – | < 100 | 165 | 66 | – |
| CN1c2ccc(C(O)(c3ccc(I)cc3)c3cncn3C)cc2C(c2cccc(Cl)c2)n2nnnc21 (mixture of isomers) [Compound 21] | – | 19.1 | 228 | 78 | – |
| CCOC(=O)CN1c2ccc(C(O)(c3ccc(OC)cc3)c3cncn3C)cc2C(c2cccc(Cl)c2)n2nnnc21 (mixture of isomers) [Compound 13] | – | 25.4 | 126 | 80 | – |
| COc1ccc(C(O)(c2ccc3c(c2)C(c2cccc(Cl)c2)n2nnnc2N3C)c2cncn2C)cc1 (mixture of isomers) [Compound 15] | – | 16.6 | 144 | 88 | – |
| Cn1cncc1C(O)(c1ccc(F)cc1)c1ccc2c(c1)C(c1cccc(Cl)c1)n1nnnc1N2 (stereo not drawn) [Compound 2, 9-(3-chlorophenyl)-α-(4-fluorophenyl)4,9-dihydro-α-(1-methyl-1H-imidazol-5-yl)-tetrazolo[5,1-b]quinazoline-7-methanol] | – | 1.77 | 180 | 96 | – |
| CN1c2ccc(C(O)(c3ccc(Cl)cc3)c3cncn3C)cc2C(c2cccc(Cl)c2)n2nnnc21 (mixture of isomers) [Compound 19] | – | 9.71 | – | 92 | – |
| Cn1cncc1C(O)(c1ccc(I)cc1)c1ccc2c(c1)C(c1cccc(Cl)c1)n1nnnc1N2 (mixture of isomers) [Compound 18] | – | 29.9 | 225 | 76 | – |
| Cn1cncc1[C@@](N)(c1ccc(Cl)cc1)c1ccc2c(c1)C(c1cccc(Cl)c1)n1nnnc1N2 (single isomer, unassigned) [Compound 12] | 42 | – | 162 | – | <7 |
| Cc1ccc(C(N)(c2ccc3c(c2)C(c2cccc(Cl)c2)n2nnnc2N3)c2cncn2C)cc1 (single isomer, unassigned) [Compound 5, 9-(3-chlorophenyl)-4,9-dihydro-α-(1-methyl-1H-imidazol-5-yl)-α-(4-methylphenyl)-tetrazolo[5,1-b]quinazoline-7-methanamine] | 99 | < 1 | – | – | – |
| COc1ccc(C(O)(c2ccc3c(c2)C(c2cccc(Cl)c2)n2nnnc2N3)c2cncn2C)cc1 (single isomer, unassigned) [Compound 7] | 64 | < 100 | > 260 | – | – |

The next lines start with the values.

| % of inhibition at 10^−7 M [1] [%] | IC50 [1] [nM] | melting point [°C] | inhibition at 0.1 µM [1] [%] | Enzyme activity pIC50 [1] | SMILES |
| --- | --- | --- | --- | --- | --- |
| 90 | 14.1 | – | – | – | COc1ccc(C(O)(c2ccc3c(c2)C(c2cccc(Cl)c2)n2nnnc2N3C)c2cncn2C)cc1 (mixture of isomers) [Compound 6] |
| – | 20.6 | 121 | 82 | – | COc1ccc(C(O)(c2ccc3c(c2)C(c2cccc(Cl)c2)n2nnnc2N3CC2CC2)c2cncn2C)cc1 (stereo not drawn) [Compound 9] |
| – | > 100 | 242 | 46 | – | Cn1cncc1[C@@](N)(c1ccc(Cl)cc1)c1ccc2c(c1)C(c1cccc(Cl)c1)n1nnnc1N2 (single isomer, unassigned) [Compound 11] |
| 88 | 11.7 | 183 | – | – | Cn1cncc1[C@](N)(c1ccc(Cl)cc1)c1ccc2c(c1)C(c1cccc(Cl)c1)n1nnnc1N2 (stereo partly drawn) [Compound 24] |
| 74 | 34.6 | – | – | – | Cc1ccc(C(N)(c2ccc3c(c2)C(c2cccc(Cl)c2)n2nnnc2N3)c2cncn2C)cc1 (single isomer, unassigned) [Compound 4, 9-(3-chlorophenyl)-4,9-dihydro-α-(1-methyl-1H-imidazol-5-yl)-α-(4-methylphenyl)-tetrazolo[5,1-b]quinazoline-7-methanamine] |
| 88 | 12.4 | 176 | – | – | COc1ccc(C(O)(c2ccc3c(c2)C(c2cccc(Cl)c2)n2nnnc2N3)c2cncn2C)cc1 (single isomer, unassigned) [Compound 8] |
| – | > 100 | – | 43 | – | CCOC(c1ccc(Cl)cc1)(c1ccc2c(c1)C(c1cccc(Cl)c1)n1nnnc1N2)c1cncn1C (stereo not drawn) [Compound 10] |
| – | < 100 | 181 | 57 | – | CN1c2ccc(C(O)(c3ccc(I)cc3)c3nncn3C)cc2C(c2cccc(Cl)c2)n2nnnc21 (mixture of isomers) [Compound 22] |
| – | > 100 | 226 | 45 | – | Cn1cnnc1C(O)(c1ccc(I)cc1)c1ccc2c(c1)C(c1cccc(Cl)c1)n1nnnc1N2 (mixture of isomers) [Compound 16] |
| – | 2.54 | > 250 | 98 | – | Cn1cncc1[C@](N)(c1ccc(Cl)cc1)c1ccc2c(c1)C(c1cccc(Cl)c1)n1nnnc1N2 (stereo partly drawn) [Compound 23] |
| – | 25.4 | > 260 | 81 | – | Cn1cncc1C(O)(c1ccc(Cl)cc1)c1ccc2c(c1)C(c1cccc(Cl)c1)n1nnnc1N2 (stereo not drawn) [Compound 1, 9-(3-chlorophenyl)-α-(4-chlorophenyl)4,9-dihydro-α-(1-methyl-1H-imidazol-5-yl)-tetrazolo[5,1-b]quinazoline-7-methanol] |
| – | 9.2 | 108 | 91 | – | COc1ccc(C(c2ccc3c(c2)C(c2cccc(Cl)c2)n2nnnc2N3C)c2cncn2C)cc1 (mixture of isomers) [Compound 20] |
